Blank lines part the entries; values can stand above or below the compound they belong to. The source made the active and inactive calls. No cut-off for these calls is given here.
Tests used:
Rattus norvegicus [1] = assay: Antilipolytic activity in Wistar rat assessed as reduction in plasma glycerol AUC (0 to 7 hrs) at 10 mg/kg, po; type: functional, organism-based
Liver = assay: Drug level in human liver microsomes treated with 2-(4-(5-(trifluoromethyl)pyridin-2-yloxy)benzyloxy)phenylboronic acid at 500 uM after 60 mins in presence of [13C2,15N-Gly]GSH and NADPH generating system by LC-MS/MS analysis; type: ADME, microsome; details: 1 h
[2] = Metabolic stability in rat liver microsomes assessed as parent compound remaining at 1 uM after 30 mins in presence of NADPH generating system by LC-MS/MS analysis; type: ADME, microsome; details: read-out: Stability
[3] = Cmax in Wistar rat at 3 mg/kg, po by LC-MS/MS analysis; type: ADME, organism-based; parameters: dose 3 mg/kg, route oral; details: in vivo
[4] = AUC (0 to 7 hrs) in Wistar rat at 3 mg/kg, po by LC-MS/MS analysis; type: ADME, organism-based; parameters: dose 3 mg/kg, time < 7 hr, route oral; details: in vivo
Rattus norvegicus [5] = assay: Antilipolytic activity in Wistar rat assessed as reduction in plasma glycerol AUC (0 to 7 hrs) at 3 mg/kg, po relative to control; type: functional; parameters: scale not given: the % may be the effect or the level left

Compound: O=C(Oc1ccc(Oc2ccc(C(F)(F)F)cn2)cc1)N1CCC(O)CC1
Activity (Rattus norvegicus [1]): Active

Drug metabolism (Liver): Metabolite_Detected
Compound: O=C(O)CNC(=O)C1CSC(c2ccc(Oc3ccc(C(F)(F)F)cn3)cc2)N1 (stereo unspecified)

remaining at 0.5 h, 1 µM [2]: 81%
Cmax [3]: 3350 ng/mL
AUC(0-t) at 7 h [4]: 19600 ng·h/mL
Compound: O=C(Nc1ccc(Cl)cc1B(O)O)c1ccc(Oc2ccc(C(F)(F)F)cc2)nc1
Activity (Rattus norvegicus [5]): 17%

Source: ChEMBL document CHEMBL3997845, “Identification of a novel hormone sensitive lipase inhibitor with a reduced potential of reactive metabolites formation” (Bioorg Med Chem, 2017)
